The values that follow are results of earlier work, collected in patent US20260272868A1 (priority 2022, published 2026).

T1 sequence (P28223 whole entry): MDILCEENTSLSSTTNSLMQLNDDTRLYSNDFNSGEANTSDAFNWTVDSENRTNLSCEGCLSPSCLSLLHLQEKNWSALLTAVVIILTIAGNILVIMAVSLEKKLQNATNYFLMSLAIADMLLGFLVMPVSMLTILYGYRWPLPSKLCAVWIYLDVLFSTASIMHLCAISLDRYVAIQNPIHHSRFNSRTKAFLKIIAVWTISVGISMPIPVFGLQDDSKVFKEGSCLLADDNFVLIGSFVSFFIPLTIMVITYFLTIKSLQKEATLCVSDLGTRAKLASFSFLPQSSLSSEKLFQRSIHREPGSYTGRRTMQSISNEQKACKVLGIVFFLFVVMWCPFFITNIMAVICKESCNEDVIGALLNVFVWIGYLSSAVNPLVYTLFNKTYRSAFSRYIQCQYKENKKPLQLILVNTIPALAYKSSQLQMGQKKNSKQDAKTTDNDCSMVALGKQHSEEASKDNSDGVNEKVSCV

One data set addresses T1, 5-HT2A receptor (Homo sapiens, UniProt P28223).
T1 construct: (~mg per ~70 kg human, route); host or cells: human subjects (in vivo doses)
The settings on record: oral; cited from earlier work.
Turning to `COc1cc(CCN)c(OC)cc1Br` [2C-B], the “Typical Fully Psychedelic Dose Range” value is reported as 15-25, oral ~mg per ~70 kg human.
Turning to `CCc1cc(OC)c(CCN)cc1OC` [2C-E, 2-(4-Ethyl-2,5-dimethoxyphenyl)ethanamine], the “Typical Fully Psychedelic Dose Range” value is given as 10-20, oral ~mg per ~70 kg human.
Take `COc1cc(CC(C)N)c(OC)cc1C` (centres unmarked) [DOM, 2,5-dimethoxy-4-methylamphetamine]: the “Typical Fully Psychedelic Dose Range” value is on record as 3-5, oral ~mg per ~70 kg human.
For the compound `CCN(CC)C(=O)[C@@H]1C=C2c3cccc4[nH]cc(c34)C[C@H]2N(C)C1` [LSD, lysergic acid diethylamide], the “Typical Fully Psychedelic Dose Range” value is listed as 0.1-0.2, oral ~mg per ~70 kg human.
`COc1cc(CCN)cc(OC)c1OC` [mescaline]: the “Typical Fully Psychedelic Dose Range” value is 200-400, oral ~mg per ~70 kg human.
Consider `CN(C)CCc1c[nH]c2cccc(O)c12` [psilocin], for which the “Typical Fully Psychedelic Dose Range” value is 15-25, oral ~mg per ~70 kg human.

The same data set, now with this note: smoked; cited from earlier work.
For `COc1ccc2[nH]cc(CCN(C)C)c2c1` [5-MeO-DMT, 5-methoxy-N,N-dimethyltryptamine], the “Typical Fully Psychedelic Dose Range” value is on record as 5-10, smoked ~mg per ~70 kg human.
Take `CN(C)CCc1c[nH]c2ccccc12` [DMT, N,N-dimethyltryptamine]: the “Typical Fully Psychedelic Dose Range” value is listed as 20-40, smoked ~mg per ~70 kg human.
